Experimental data published in the supplement of paper PMC11061612.

Legend:
Experiment in all cases: Bliss excess, mean over the matrix (fraction); higher = more synergy
[1] = tested on: SW1271 (Small Cell Lung Carcinoma)
Method in brief: (§1)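 Cell lines in DMEM/F12 or RPMI with 10% FBS were plated in 1536-well plates, held 24 hours at 37°C, 5% CO2, then given two-drug dose matrices for 72 hours (DMSO typically 0.2%). Viability was read by CellTiter-Glo 2.0 luminescence and scaled as inhibition from 0 (vehicle wells) to 1 (blank wells). Combination Emax is the second-highest inhibition in the matrix; Bliss excess is observed combination effect minus expected EA + EB − EA·EB, EA and EB being single-agent effects.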

SH-4 (Melanoma) = tested on: SH-4 (Melanoma)
Method in brief: as §1

[2] = tested on: CAL-54 (Kidney Carcinoma)
Method in brief: as §1

[3] = tested on: NCI-H747 (Colorectal Carcinoma)
Method in brief: as §1

[4] = tested on: KYSE-410 (Esophageal Squamous Cell Carcinoma)
Method in brief: as §1

[5] = tested on: CAPAN-1 (Pancreatic Carcinoma)
Method in brief: as §1

[6] = tested on: SK-OV-3 (Ovarian Carcinoma)
Method in brief: as §1

[7] = tested on: SW626 (Colorectal Carcinoma)
Method in brief: as §1

[8] = tested on: EN (Endometrial Carcinoma)
Method in brief: as §1

COLO-829 (Melanoma) = tested on: COLO-829 (Melanoma)
Method in brief: as §1

[9] = tested on: NCI-H69 (Small Cell Lung Carcinoma)
Method in brief: as §1

[10] = tested on: MDA-MB-468 (Breast Carcinoma)
Method in brief: as §1

NCI-H2795 (Mesothelioma) = tested on: NCI-H2795 (Mesothelioma)
Method in brief: as §1

[11] = tested on: PCI-30 (Head and Neck Carcinoma)
Method in brief: as §1

[12] = tested on: CAL-51 (Breast Carcinoma)
Method in brief: as §1

[13] = tested on: KARPAS-231 (B-Cell Non-Hodgkin's Lymphoma)
Method in brief: as §1

[14] = tested on: RPMI-6666 (Non-Cancerous)
Method in brief: as §1

[15] = tested on: LB771-HNC (Head and Neck Carcinoma)
Method in brief: as §1

[16] = tested on: CTB-1 (B-Cell Non-Hodgkin's Lymphoma)
Method in brief: as §1

[17] = tested on: 8305C (Thyroid Gland Carcinoma)
Method in brief: as §1

Structure (SMILES): CCc1c2c(nc3ccc(O)cc13)-c1cc3c(c(=O)n1C2)COC(=O)[C@]3(O)CC [SN-38] + O=C(c1cc(Cc2n[nH]c(=O)c3ccccc23)ccc1F)N1CCN(C(=O)C2CC2)CC1 [Olaparib] (first compound max 0.3 µM, 7x7, partner max 10 µM)
- Bliss excess [1]: 0.129
- Bliss excess (SH-4 (Melanoma)): 0.0956
- Bliss excess [2]: -0.0068
- Bliss excess [3]: 0.0512
- Bliss excess [4]: 0.0014
- Bliss excess [5]: 0.0168
- Bliss excess [6]: 0.0571
- Bliss excess [7]: 0.0064
- Bliss excess [8]: -0.0377
- Bliss excess (COLO-829 (Melanoma)): -0.0186
- Bliss excess [9]: -0.0035
- Bliss excess [10]: 0.0941
- Bliss excess (NCI-H2795 (Mesothelioma)): 0.08
- Bliss excess [11]: 0.0572
- Bliss excess [12]: 0.119
- Bliss excess [13]: 0.113
- Bliss excess [14]: 0.0394
- Bliss excess [15]: -0.0181
- Bliss excess [16]: 0.0546
- Bliss excess [17]: 0.04

Structure (SMILES): CN(CCO)CC[C@H](CSc1ccccc1)Nc1ccc(S(=O)(=O)NC(=O)c2ccc(N3CCC([C@@H](O)c4ccccc4-c4ccc(Cl)cc4)CC3)cc2)cc1S(=O)(=O)C(F)(F)F [AZD4320] + C=CCn1c(=O)c2cnc(Nc3ccc(N4CCN(C)CC4)cc3)nc2n1-c1cccc(C(C)(C)O)n1 [AZD1775] (first compound max 1 µM, partner max 1 µM)
- Bliss excess [1]: 0.0152
- Bliss excess (SH-4 (Melanoma)): 0.0103
- Bliss excess [2]: 0.146
- Bliss excess [3]: -0.0238
- Bliss excess [4]: -0.0313
- Bliss excess [5]: 0.0172
- Bliss excess [6]: 0.0069
- Bliss excess [7]: -0.0124
- Bliss excess [8]: -0.0337
- Bliss excess (COLO-829 (Melanoma)): -0.0167
- Bliss excess [9]: -0.0213
- Bliss excess [10]: 0.032
- Bliss excess (NCI-H2795 (Mesothelioma)): -0.0225
- Bliss excess [11]: 0.0013
- Bliss excess [12]: -0.0122
- Bliss excess [13]: 0.117
- Bliss excess [14]: 0.0219
- Bliss excess [15]: -0.0049
- Bliss excess [16]: -0.0309
- Bliss excess [17]: -0.0178

Structure (SMILES): CC1(C)CCC(CN2CCN(c3ccc(C(=O)NS(=O)(=O)c4ccc(NCC5CCOCC5)c([N+](=O)[O-])c4)c(Oc4cnc5[nH]ccc5c4)c3)CC2)=C(c2ccc(Cl)cc2)C1 [Venetoclax] + CN(C)CCCOc1ccc(-c2ccc3ncc4c(c3c2)n(C2CCOCC2)c(=O)n4C)cn1 [AZD0156] (first compound max 1 µM, 7x7, partner max 1 µM)
- Bliss excess [1]: -0.0283
- Bliss excess (SH-4 (Melanoma)): -0.0087
- Bliss excess [2]: -0.0085
- Bliss excess [3]: -0.0497
- Bliss excess [4]: -0.0377
- Bliss excess [5]: -0.0696
- Bliss excess [6]: -0.0637
- Bliss excess [7]: -0.0381
- Bliss excess [8]: -0.0832
- Bliss excess (COLO-829 (Melanoma)): -0.0264
- Bliss excess [9]: 0.002
- Bliss excess [10]: -0.0294
- Bliss excess (NCI-H2795 (Mesothelioma)): 0.0332
- Bliss excess [11]: -0.0665
- Bliss excess [12]: 0.0064
- Bliss excess [13]: -0.0599
- Bliss excess [14]: -0.0231
- Bliss excess [15]: -0.0215
- Bliss excess [16]: -0.024
- Bliss excess [17]: -0.0626

Structure (SMILES): CN(C)CCCOc1ccc(-c2ccc3ncc4c(c3c2)n(C2CCOCC2)c(=O)n4C)cn1 [AZD0156] + CCN(CCO)CCCOc1ccc2c(Nc3cc(CC(=O)Nc4cccc(F)c4)[nH]n3)ncnc2c1 [AZD2811] (first compound max 1 µM, 7x7, partner max 1 µM)
- Bliss excess [1]: -0.0322
- Bliss excess (SH-4 (Melanoma)): -0.0328
- Bliss excess [2]: -0.0129
- Bliss excess [3]: -0.02
- Bliss excess [4]: -0.0431
- Bliss excess [5]: -0.0635
- Bliss excess [6]: -0.0533
- Bliss excess [7]: -0.0392
- Bliss excess [8]: 0.0456
- Bliss excess (COLO-829 (Melanoma)): -0.0587
- Bliss excess [9]: 0.0012
- Bliss excess [10]: -0.0326
- Bliss excess (NCI-H2795 (Mesothelioma)): 0.0025
- Bliss excess [11]: -0.013
- Bliss excess [12]: 0.0226
- Bliss excess [13]: -0.0205
- Bliss excess [14]: 0.0312
- Bliss excess [15]: -0.0498
- Bliss excess [16]: 0.002
- Bliss excess [17]: -0.0794

Structure (SMILES): CC1(C)CCC(CN2CCN(c3ccc(C(=O)NS(=O)(=O)c4ccc(NCC5CCOCC5)c([N+](=O)[O-])c4)c(Oc4cnc5[nH]ccc5c4)c3)CC2)=C(c2ccc(Cl)cc2)C1 [Venetoclax] + Cn1cnc2c(F)c(Nc3ccc(Br)cc3Cl)c(C(=O)NOCCO)cc21 [Selumetinib] (first compound max 1 µM, 7x7, partner max 3 µM)
- Bliss excess [1]: -0.0255
- Bliss excess (SH-4 (Melanoma)): -0.0306
- Bliss excess [2]: -0.0466
- Bliss excess [3]: -0.0489
- Bliss excess [4]: -0.0393
- Bliss excess [5]: -0.057
- Bliss excess [6]: -0.0624
- Bliss excess [7]: -0.0877
- Bliss excess [8]: -0.0325
- Bliss excess (COLO-829 (Melanoma)): -0.0392
- Bliss excess [9]: -0.105
- Bliss excess [10]: -0.0693
- Bliss excess (NCI-H2795 (Mesothelioma)): -0.0354
- Bliss excess [11]: -0.0429
- Bliss excess [12]: -0.0088
- Bliss excess [13]: -0.177
- Bliss excess [14]: 0.0306
- Bliss excess [15]: -0.0555
- Bliss excess [16]: -0.0475
- Bliss excess [17]: -0.0583

Structure (SMILES): Cc1c2c(nn1C)CSCc1cc(n(C)n1)CSc1cc(c3ccccc3c1)OCCCc1c(C(=O)O)n(C)c3c-2c(Cl)ccc13 [AZD5991] + CC1(C)CCC(CN2CCN(c3ccc(C(=O)NS(=O)(=O)c4ccc(NCC5CCOCC5)c([N+](=O)[O-])c4)c(Oc4cnc5[nH]ccc5c4)c3)CC2)=C(c2ccc(Cl)cc2)C1 [Venetoclax] (first compound max 1 µM, 7x7, partner max 1 µM)
- Bliss excess [1]: -0.0504
- Bliss excess (SH-4 (Melanoma)): 0.0457
- Bliss excess [2]: -0.0151
- Bliss excess [3]: -0.0438
- Bliss excess [4]: -0.0393
- Bliss excess [5]: -0.0459
- Bliss excess [6]: -0.0153
- Bliss excess [7]: -0.0064
- Bliss excess [8]: -0.0236
- Bliss excess (COLO-829 (Melanoma)): -0.0122
- Bliss excess [9]: -0.0383
- Bliss excess [10]: 0.0812
- Bliss excess (NCI-H2795 (Mesothelioma)): -0.0423
- Bliss excess [11]: -0.0376
- Bliss excess [12]: 0.0481
- Bliss excess [13]: -0.0232
- Bliss excess [14]: 0.233
- Bliss excess [15]: 0.0035
- Bliss excess [16]: -0.0491
- Bliss excess [17]: -0.0189

Structure (SMILES): Cc1c2c(nn1C)CSCc1cc(n(C)n1)CSc1cc(c3ccccc3c1)OCCCc1c(C(=O)O)n(C)c3c-2c(Cl)ccc13 [AZD5991] + Cn1cnc2c(F)c(Nc3ccc(Br)cc3Cl)c(C(=O)NOCCO)cc21 [Selumetinib] (first compound max 1 µM, 7x7, partner max 3 µM)
- Bliss excess [1]: -0.0287
- Bliss excess (SH-4 (Melanoma)): 0.0465
- Bliss excess [2]: 0.0203
- Bliss excess [3]: 0.0032
- Bliss excess [4]: -0.0058
- Bliss excess [5]: -0.0269
- Bliss excess [6]: -0.0597
- Bliss excess [7]: 0.0233
- Bliss excess [8]: -0.0494
- Bliss excess (COLO-829 (Melanoma)): 0.0295
- Bliss excess [9]: -0.065
- Bliss excess [10]: -0.0389
- Bliss excess (NCI-H2795 (Mesothelioma)): 0.0278
- Bliss excess [11]: -0.0352
- Bliss excess [12]: 0.0634
- Bliss excess [13]: -0.0645
- Bliss excess [14]: 0.0387
- Bliss excess [15]: -0.0118
- Bliss excess [16]: -0.02
- Bliss excess [17]: -0.0511

Structure (SMILES): CN(CCO)CC[C@H](CSc1ccccc1)Nc1ccc(S(=O)(=O)NC(=O)c2ccc(N3CCC([C@@H](O)c4ccccc4-c4ccc(Cl)cc4)CC3)cc2)cc1S(=O)(=O)C(F)(F)F [AZD4320] + C[C@@H]1COCCN1C2=NC(=NC(=C2)C3(CC3)[S@](=N)(=O)C)C4=C5C=CNC5=NC=C4 [AZD6738] (first compound max 1 µM, 7x7, partner max 10 µM)
- Bliss excess [1]: -0.0085
- Bliss excess (SH-4 (Melanoma)): -0.0411
- Bliss excess [2]: -0.0435
- Bliss excess [3]: -0.0649
- Bliss excess [4]: -0.0723
- Bliss excess [5]: 0.0034
- Bliss excess [6]: -0.0984
- Bliss excess [7]: -0.0606
- Bliss excess [8]: -0.056
- Bliss excess (COLO-829 (Melanoma)): -0.0409
- Bliss excess [9]: -0.0446
- Bliss excess [10]: 0.0161
- Bliss excess (NCI-H2795 (Mesothelioma)): 0.0173
- Bliss excess [11]: -0.0223
- Bliss excess [12]: -0.0316
- Bliss excess [13]: -0.0331
- Bliss excess [14]: -0.0271
- Bliss excess [15]: 0.0047
- Bliss excess [16]: -0.0791
- Bliss excess [17]: -0.004

Structure (SMILES): CCN(CCO)CCCOc1ccc2c(Nc3cc(CC(=O)Nc4cccc(F)c4)[nH]n3)ncnc2c1 [AZD2811] + C=CCn1c(=O)c2cnc(Nc3ccc(N4CCN(C)CC4)cc3)nc2n1-c1cccc(C(C)(C)O)n1 [AZD1775] (first compound max 1 µM, partner max 1 µM)
- Bliss excess [1]: -0.02
- Bliss excess (SH-4 (Melanoma)): -0.0484
- Bliss excess [2]: -0.032
- Bliss excess [3]: -0.0538
- Bliss excess [4]: -0.0179
- Bliss excess [5]: -0.0733
- Bliss excess [6]: -0.068
- Bliss excess [7]: -0.0443
- Bliss excess [8]: -0.0426
- Bliss excess (COLO-829 (Melanoma)): 0.0009
- Bliss excess [9]: -0.0671
- Bliss excess [10]: 0.0205
- Bliss excess (NCI-H2795 (Mesothelioma)): -0.0117
- Bliss excess [11]: 0.0191
- Bliss excess [12]: 0.0511
- Bliss excess [13]: 0.0395
- Bliss excess [14]: -0.0271
- Bliss excess [15]: -0.0295
- Bliss excess [16]: 0.0011
- Bliss excess [17]: -0.0355
